Results reported in ChEMBL document CHEMBL1135136, “Carbonic anhydrase inhibitors. Preparation of potent sulfonamides inhibitors incorporating bile acid tails” (Bioorg Med Chem Lett, 2002).

What was measured:
Carbonic anhydrase 1 = Carbonic anhydrase 1 (Homo sapiens, UniProt P00915)
Description: Inhibitory activity against human recombinant carbonic anhydrase I (CA1)

Carbonic anhydrase 2 = Carbonic anhydrase 2 (Homo sapiens, UniProt P00918)
Description: Inhibitory activity against human recombinant carbonic anhydrase II (CA2)

Carbonic anhydrase 4 = target: T1, Carbonic anhydrase 4 (Bos taurus, UniProt Q95323)
T1 sequence (Q95323 whole entry): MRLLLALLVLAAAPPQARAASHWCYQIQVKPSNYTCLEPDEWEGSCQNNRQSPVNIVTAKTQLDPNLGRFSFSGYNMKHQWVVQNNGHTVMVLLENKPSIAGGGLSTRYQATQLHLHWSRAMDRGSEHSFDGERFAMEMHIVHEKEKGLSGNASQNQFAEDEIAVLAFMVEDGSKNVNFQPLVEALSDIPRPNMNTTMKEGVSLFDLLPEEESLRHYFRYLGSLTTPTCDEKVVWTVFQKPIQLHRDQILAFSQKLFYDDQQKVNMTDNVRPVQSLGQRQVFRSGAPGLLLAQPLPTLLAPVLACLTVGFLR
Description: Inhibitory activity against bovine carbonic anhydrase IV (CA4), obtained from bovine lung microsomes

Sequence of Carbonic anhydrase 1 (P00915 whole entry): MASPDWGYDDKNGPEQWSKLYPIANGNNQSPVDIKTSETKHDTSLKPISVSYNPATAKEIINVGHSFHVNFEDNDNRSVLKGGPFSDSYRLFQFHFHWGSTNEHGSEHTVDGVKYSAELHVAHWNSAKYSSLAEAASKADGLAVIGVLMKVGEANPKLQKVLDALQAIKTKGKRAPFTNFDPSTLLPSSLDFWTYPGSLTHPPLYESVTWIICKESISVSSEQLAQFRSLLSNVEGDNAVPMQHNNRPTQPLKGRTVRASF

Ki (Carbonic anhydrase 1) [nM]	Ki (Carbonic anhydrase 2) [nM]	Ki (Carbonic anhydrase 4) [nM]	Compound
210	15	28	C[C@H](CCC(=O)Nc1ccc(S(N)(=O)=O)cc1F)[C@H]1CC[C@H]2[C@@H]3C(=O)C[C@@H]4CC(=O)CC[C@]4(C)[C@H]3CC(=O)[C@]12C
268	2	45	C[C@H](CCC(=O)NCCC(=O)Nc1nnc(S(N)(=O)=O)s1)[C@H]1CC[C@H]2[C@@H]3[C@H](O)C[C@@H]4C[C@H](O)CC[C@]4(C)[C@H]3CC[C@]12C
25500	275	1200	C[C@H](CCC(=O)Nc1ccccc1S(N)(=O)=O)[C@H]1CC[C@H]2[C@@H]3[C@H](O)C[C@@H]4C[C@H](O)CC[C@]4(C)[C@H]3C[C@H](O)[C@]12C
30	0.6	5	C[C@H](CCC(=O)OCCOc1ccc2nc(S(N)(=O)=O)sc2c1)[C@H]1CC[C@H]2[C@@H]3[C@@H](O)C[C@@H]4C[C@H](O)CC[C@]4(C)[C@H]3CC[C@]12C
200	54	82	C[C@H](CCC(=O)Nc1cc(Cl)c(S(N)(=O)=O)cc1S(N)(=O)=O)[C@H]1CC[C@H]2[C@@H]3CC[C@@H]4C[C@H](O)CC[C@]4(C)[C@H]3CC[C@]12C
9500	210	740	C[C@H](CCC(=O)Nc1cccc(S(N)(=O)=O)c1)[C@H]1CC[C@H]2[C@@H]3CC[C@@H]4C[C@H](O)CC[C@]4(C)[C@H]3CC[C@]12C
130	17	87	C[C@H](CCC(=O)Nc1c(S(N)(=O)=O)cc(S(N)(=O)=O)c(Cl)c1Cl)[C@H]1CC[C@H]2[C@@H]3CC[C@@H]4C[C@H](O)CC[C@]4(C)[C@H]3CC[C@]12C
21400	210	1250	C[C@H](CCC(=O)Nc1cccc(S(N)(=O)=O)c1)[C@H]1CC[C@H]2[C@@H]3[C@H](O)C[C@@H]4C[C@H](O)CC[C@]4(C)[C@H]3CC[C@]12C
59	10	29	C[C@H](CCC(=O)Nc1c(S(N)(=O)=O)cc(S(N)(=O)=O)c(Cl)c1Cl)[C@H]1CC[C@H]2[C@@H]3[C@@H](O)C[C@@H]4C[C@H](O)CC[C@]4(C)[C@H]3CC[C@]12C
343	21	95	C[C@H](CCC(=O)Nc1c(S(N)(=O)=O)cc(S(N)(=O)=O)c(Cl)c1Cl)[C@H]1CC[C@H]2[C@@H]3[C@H](O)C[C@@H]4C[C@H](O)CC[C@]4(C)[C@H]3CC[C@]12C
39	4.8	9	C[C@H](CCC(=O)Oc1ccc2nc(S(N)(=O)=O)sc2c1)[C@H]1CC[C@H]2[C@@H]3CC[C@@H]4C[C@H](O)CC[C@]4(C)[C@H]3C[C@H](O)[C@]12C
37	4.1	8	C[C@H](CCC(=O)OCCOc1ccc2nc(S(N)(=O)=O)sc2c1)[C@H]1CC[C@H]2[C@@H]3CC[C@@H]4C[C@H](O)CC[C@]4(C)[C@H]3C[C@H](O)[C@]12C
12000	210	355	C[C@H](CCC(=O)Nc1ccc(S(N)(=O)=O)cc1)[C@H]1CC[C@H]2[C@@H]3CC[C@@H]4C[C@H](O)CC[C@]4(C)[C@H]3C[C@H](O)[C@]12C
21000	210	430	C[C@H](CCC(=O)Nc1ccc(S(N)(=O)=O)cc1)[C@H]1CC[C@H]2[C@@H]3[C@H](O)C[C@@H]4C[C@H](O)CC[C@]4(C)[C@H]3C[C@H](O)[C@]12C
250	1.2	31	C[C@H](CCC(=O)NCCC(=O)Nc1nnc(S(N)(=O)=O)s1)[C@H]1CC[C@H]2[C@@H]3[C@H](O)C[C@@H]4C[C@H](O)CC[C@]4(C)[C@H]3C[C@H](O)[C@]12C
45	9	24	C[C@H](CCC(=O)Nc1c(S(N)(=O)=O)cc(S(N)(=O)=O)c(Cl)c1Cl)[C@H]1CC[C@H]2[C@@H]3C(=O)C[C@@H]4CC(=O)CC[C@]4(C)[C@H]3CC(=O)[C@]12C
4000	71	164	C[C@H](CCC(=O)Nc1ccc(S(N)(=O)=O)cc1)[C@H]1CC[C@H]2[C@@H]3[C@@H](O)C[C@@H]4C[C@H](O)CC[C@]4(C)[C@H]3CC[C@]12C
120	32	69	C[C@H](CCC(=O)Nc1ccc(S(N)(=O)=O)cc1I)[C@H]1CC[C@H]2[C@@H]3CC[C@@H]4C[C@H](O)CC[C@]4(C)[C@H]3CC[C@]12C
1710	80	233	C[C@H](CCC(=O)NCc1ccc(S(N)(=O)=O)cc1)[C@H]1CC[C@H]2[C@@H]3CC[C@@H]4C[C@H](O)CC[C@]4(C)[C@H]3C[C@H](O)[C@]12C
617	34	53	C[C@H](CCC(=O)Nc1ccc(S(N)(=O)=O)cc1Br)[C@H]1CC[C@H]2[C@@H]3[C@H](O)C[C@@H]4C[C@H](O)CC[C@]4(C)[C@H]3CC[C@]12C
3700	70	147	C[C@H](CCC(=O)Nc1ccc(S(N)(=O)=O)cc1)[C@H]1CC[C@H]2[C@@H]3C(=O)C[C@@H]4CC(=O)CC[C@]4(C)[C@H]3CC(=O)[C@]12C
15000	280	650	C[C@H](CCC(=O)NNc1ccc(S(N)(=O)=O)cc1)[C@H]1CC[C@H]2[C@@H]3CC[C@@H]4C[C@H](O)CC[C@]4(C)[C@H]3CC[C@]12C
780	42	96	C[C@H](CCC(=O)Nc1ccc(S(N)(=O)=O)cc1F)[C@H]1CC[C@H]2[C@@H]3CC[C@@H]4C[C@H](O)CC[C@]4(C)[C@H]3C[C@H](O)[C@]12C
22100	245	900	C[C@H](CCC(=O)Nc1ccccc1S(N)(=O)=O)[C@H]1CC[C@H]2[C@@H]3[C@H](O)C[C@@H]4C[C@H](O)CC[C@]4(C)[C@H]3CC[C@]12C
910	48	83	C[C@H](CCC(=O)NCc1ccc(S(N)(=O)=O)cc1)[C@H]1CC[C@H]2[C@@H]3CC[C@@H]4C[C@H](O)CC[C@]4(C)[C@H]3CC[C@]12C
410	52	240	C[C@H](CCC(=O)Nc1nnc(S(N)(=O)=O)s1)[C@H]1CC[C@H]2[C@@H]3[C@H](O)C[C@@H]4C[C@H](O)CC[C@]4(C)[C@H]3CC[C@]12C

Compound	Ki (Carbonic anhydrase 1) [nM]	Ki (Carbonic anhydrase 2) [nM]	Ki (Carbonic anhydrase 4) [nM]
C[C@H](CCC(=O)NNc1ccc(S(N)(=O)=O)cc1)[C@H]1CC[C@H]2[C@@H]3C(=O)C[C@@H]4CC(=O)CC[C@]4(C)[C@H]3CC(=O)[C@]12C	12800	260	550
C[C@H](CCC(=O)OCc1ccc(S(N)(=O)=O)cc1)[C@H]1CC[C@H]2[C@@H]3[C@@H](O)C[C@@H]4C[C@H](O)CC[C@]4(C)[C@H]3CC[C@]12C	500	75	245
